Results from patent US11590181B2, “Serpin production” (SOCIETE DES PRODUITS NESTLE S.A., priority 2017, dated 2023).
Where no end group is shown, it is not given here.

Assays:
[1] = test system: serpin gene in B. longum NCC 2705; experiment: Sugar induction of serpin gene transcription in Biolector culture (qRT-PCR); format: cell-based; conditions: 180 min sugar induction at 0.1%, relative to growth in only MRSc (FIG. 1)
Protocol: FIG. 1—Relative transcription level of serpin gene in B. longum NCC 2705 after 180 min sugar induction at a concentration of 0.1%. The bars indicate the relative amounts of serpin mRNAs for the specific samples comparing to that of growth in only MRSc. Black bars represent significant induction. The standard deviation was obtained from at least 2 different experiments (95% confidence interval).
BL NCC 2705 (B. longum strain CNCM I-2618) was grown in Biolector (growth conditions—anaerobic, 37° C., MRS+5 mM L-cysteine (MRSc).
48-well microtiter plate with pH sensor and dissolved oxygen (DO) sensor were used to culture the strains in Biolector (m2p-labs Aachen, Germany). It was continuously shaken to prevent bacteria aggregation and measurements were performed every 15 min. Plates were sealed with a gas permeable film and an anaerobe-chamber provides well-defined anaerobic gassing conditions. Fermentation parameters like biomass, pH and dissolved oxygen (DO) were monitored online throughout the entire growth using the BioLection HMI software. Growth parameters were:
The following carbohydrates were added to the cultures individually:
B. longum NCC 2705 was then further cultivated in the same conditions for 180 min, after which samples (500 μl) were collected and serpin mRNA levels measured. Every fermentation was performed at least in duplicate.
Total RNA isolation—500 μl of bacterial cultures were suspended in 1 ml of RNA protect bacteria reagent (Qiagen, Germany) and briefly centrifuged 10 min at 5000 g to harvest cells for total RNA extraction.
Total RNA was extracted using the RNeasy total RNA Mini kit (Qiagen, Germany, Ca. No. 74101) with protease K (Qiagen, Germany, Ca. No. 19131) and further treated using RNase-free DNase set (Qiagen, Germany, Ca. No. 79254). Total RNA was then eluted in 40 μl water. […]
mRNA fold expression analysis method—The Pfaffl method was used to calculate relative transcription changes (Pfaffl, 2012, Martin Filion, Hg., Quantitative real-time PCR in Applied Microbiology, 53-62) for which the equation is shown in Equation 1: […]

BL NCC 2705 serpin = experiment: Lactose dose response in 10 L fermenter, serpin mRNA fold induction; format: cell-based, B. longum; conditions: addition of 0.1% lactose, among 0.05%, 1%, 2% and 2.75%, glucose added to 5.5% total sugar, base 8 h culture (FIG. 2)
Protocol: FIG. 2—Serpin mRNA level of B. longum NCC 2705 fermented in different growth medium after 8 h, 12 h and 16 h. Different proportions of glucose was replaced by lactose and fructose as shown in the y-axis and the total amount of sugar percentage was kept stable at 5.5%. The values were calculated based on B. longum NCC 2705 growth after 8 h in 5.5% glucose. Black bars represent significant induction. In order to optimize the effect of lactose on induction of BL NCC 2705 serpin, a dose response was performed. The fermentation was performed in a 10 L Biostar B Plus fermenter with MRSc medium, supplemented with 0.05% cysteine as base, and different concentration of lactose (0.05%, 0.1%, 1%, 2% and 2.75%) were added to the medium. Glucose was supplemented to the different recipes to reach a final total amount of 5.5% of total sugar. Serpin mRNA fold induction was calculated using the 8 h MRSc grown BL NCC 2705 culture as a base (FIG. 2).

elastases and proteinase = conditions: cited from earlier work
transglutaminase 2 (TG2) = molecular target: T1, transglutaminase 2 (TG2) (Homo sapiens, UniProt P21980); conditions: in vitro; inhibits deamidation of the 33-mer gliadin peptide; cited from earlier work
T1 sequence (P21980 1-687): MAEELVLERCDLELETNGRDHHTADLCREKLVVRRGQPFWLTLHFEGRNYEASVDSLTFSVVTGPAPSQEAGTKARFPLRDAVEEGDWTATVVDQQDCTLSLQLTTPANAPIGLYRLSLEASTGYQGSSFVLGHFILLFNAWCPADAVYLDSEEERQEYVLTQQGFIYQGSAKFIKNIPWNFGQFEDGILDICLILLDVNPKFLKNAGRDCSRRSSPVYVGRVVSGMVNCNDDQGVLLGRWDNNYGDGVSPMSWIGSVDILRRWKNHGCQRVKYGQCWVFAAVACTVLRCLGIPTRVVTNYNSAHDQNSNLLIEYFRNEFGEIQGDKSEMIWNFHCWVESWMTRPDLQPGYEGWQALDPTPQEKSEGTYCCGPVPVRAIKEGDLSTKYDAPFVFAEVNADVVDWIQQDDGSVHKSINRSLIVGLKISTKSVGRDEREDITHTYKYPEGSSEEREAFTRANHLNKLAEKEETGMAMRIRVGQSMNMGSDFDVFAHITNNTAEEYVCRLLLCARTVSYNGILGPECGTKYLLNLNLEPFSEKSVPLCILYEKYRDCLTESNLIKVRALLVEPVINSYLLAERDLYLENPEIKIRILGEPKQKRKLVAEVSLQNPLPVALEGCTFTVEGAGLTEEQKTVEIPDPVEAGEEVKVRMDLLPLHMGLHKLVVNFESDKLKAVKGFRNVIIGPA

[2] = test system: mouse model of gluten sensitivity; conditions: elafin delivered by recombinant Lactococcus lactis; cited from earlier work

Row | Compound | serpin mRNA levels of B. longum NCC 2705 [1] | serpin mRNA level at end of fermentation (16 h) (BL NCC 2705 serpin) | inhibitory capacity against various forms of elastases and proteinase (elastases and proteinase) | inhibition of transglutaminase 2 (TG2) (transglutaminase 2 (TG2)) | gluten-induced pathology and intestine inflammation [2]
1 | OC[C@H]1O[C@@H](O[C@H]2[C@H](O)[C@@H](O)C(O)O[C@@H]2CO)[C@H](O)[C@@H](O)[C@H]1O (stereo partly shown) [lactose, Lactose] | increase | highest |  |  | 
2 | OC[C@H]1O[C@H](OC[C@H]2O[C@H](O[C@]3(CO)O[C@H](CO)[C@@H](O)[C@@H]3O)[C@H](O)[C@@H](O)[C@@H]2O)[C@H](O)[C@@H](O)[C@H]1O [raffinose, Raffinose] | increase |  |  |  | 
3 | O=C(CO)[C@@H](O)[C@H](O)[C@H](O)CO [fructose, Fructose] | increase |  |  |  | 
4 | elafin: human serine protease inhibitor (AQEPVKGPVSTKPGSCPIILIRCAMLNPPNRCLKDTDCPGIKKCCEGSCGMACFVPQ; ends and bridges not checked; cysteine pairing not given here; UniProt P19957 61-117, looked up) |  |  | potent inhibitory capacity | moderately inhibits | reduce gluten-induced pathology and normalise intestine inflammation
